# Data: PMC12005472 (Chemmedchem, 2025)
# Like-named read-outs stand apart in the source and are kept apart here.
# Experiments:
# [1] = test system: HIV-1 protease (HIV-1 PR); design: method as in PMID 1883831; details: experiment; cited from earlier work
# Asp25 = Asp25 (UniProt position 93, KEALLDTGADD); details: cited from earlier work
# Endothiapepsin (EP) [2] = test system: Endothiapepsin (EP)
# Source text: The total proton exchange ( ΔnH^+ ) in a binding event can be determined by ITC measurements in different buffers with distinct heats of ionization ( ΔHionization ), according to the Eq. 1: (1) ΔHobserved=ΔHcorrected+ΔnH^+(ΔHionization)
# Integrating the raw thermograms yields the experimentally observed enthalpies ( ΔHobserved ), which can be used for a linear regression with the slope corresponding to ΔnH^+ and the y‐axis intercept corresponding to the buffer‐corrected enthalpy of the binding reaction ( ΔHcorrected ).
# Figure 3 Left: Calculation of the heat of ionization. The experimentally observed enthalpies ΔHobs are plotted against the heat of ionization ΔHion of the respective buffers (phosphate: 3.60 kJ mol^−1 ADA: 12.23 kJ mol^−1, HEPES: 20.04 kJ mol^−1, TRIS: 47.45 kJ mol^−1).[14] […] Right: Thermodynamic profiles of complex formation in phosphate, ADA, HEPES and TRIS buffers and the buffer‐corrected thermodynamic profile. For the buffer‐corrected profile, the change in Gibbs free energy ΔG is calculated as the average of ΔG observed in the four buffers, ΔH is obtained as described above, and the entropic contribution − TΔS is calculated from the numerical difference between ΔG and ΔH .
# Cacodylate was excluded as a buffering agent due to its toxicity. […] 2.5 % (v/v) DMSO corresponds to a molar concentration of 0.35 M.
# Each parameter alone can have a clear effect on the thermodynamic properties.[11] We used the MicroCal PEAQ‐ITC Automated ITC with a cell volume of 200 μL; 25 °C is a standard temperature, where most of the experiments are carried out, not only ITC. We followed standard protocols for protein, ligand, and buffer concentrations.[16]
# The dialysis was performed in a 600 mL beaker. The membrane of the cassette was soaked in the dialysis buffer for 2 min by holding it (with gloves) in the beaker filled with dialysis buffer at pH 7.0 (TRIS, ADA, HEPES and phosphate, respectively). After pre‐soaking, the cassette was carefully dried with a paper towel to prevent buffer from entering the cassette, but without touching the membranes. 3 mL of at least 4 mg mL^−1 protein solution was added to the cassette using a 200 μL micropipette. When the cassette was closed with the stopper, any remaining air was gently evacuated from the dialysis chamber. The protein was then dialyzed against 500 mL of dialysis buffer for 2 hours at RT with slow stirring. The buffer was then replaced with 500 mL of fresh buffer and stirred again for 2 hours at RT. After another change of buffer, the dialysate was stored in the refrigerator overnight (12–20 hours). The next day, the protein solution was removed using a syringe with a long cannula. The protein was stored on ice before being shock frozen in liquid nitrogen to determine the concentration using NanoDrop™ 2000c (Thermo Scientific, USA).
# ITC measurements were performed using the MicroCal PEAQ‐ITC Automated ITC (Malvern Panalytical, Worcestershire, UK). […] For the reference titration, the same titrant was titrated into the buffer solution. The obtained thermogram peaks of all titrations were integrated and fitted with MicroCal PEAQ‐ITC Analysis Software 1.41.
# Endothiapepsin (EP) [3] = details: in words; ref not given; cited from earlier work
# Endothiapepsin (EP) [4] = details: ITC; 80 μM EP, 1200 μM pepA, 20 mM buffer (ACES, Cacodylate, HEPES, Phosphate, TRIS), 16 °C, pH 7.0; ref 12 (Gómez and Freire); cited from earlier work
substance,measurement,setting,value
"HIV‐1 PR: HIV-1 protease, an aspartic protease, used to calibrate the Poisson-Boltzmann methodology",pKa of Asp25,[1],3.1
same,pKa of Asp25’,[1],5.2
HIV-1 protease (Human immunodeficiency virus 1),pKa,Asp25,3.1
same,pKa,Asp25; record 2,5.2
Iva‐Val‐Val‐Sta‐Ala‐Sta [pepA],"proton uptake upon pepA binding to EP, in words",Endothiapepsin (EP) [2],uptake of more than one mole of protons
same,total proton exchange ΔnH^+ (proton uptake per binding reaction),"Endothiapepsin (EP) [2]; ITC, slope of ΔHobs vs ΔHionization in phosphate, ADA, HEPES, TRIS, pH 7.0, 25 °C, 50 μM EP, 500 μM pepA, 100 mM buffer, 2.5 % DMSO, 0.1 % Tween20, on average",1.67±0.12 protons per binding reaction
same,enthalpic contribution (ΔHobserved) in TRIS,"Endothiapepsin (EP) [2]; TRIS buffer 100 mM, pH 7.0, 25 °C, 2.5 % DMSO, 0.1 % Tween20",7.34 ± 0.693 kcal/mol
same,overall proton uptake,Endothiapepsin (EP) [2]; pH 7,1.67±0.12 moles of protons
same,total proton exchange ΔnH^+ (proton uptake),Endothiapepsin (EP) [2]; pH 7,1.67 ± 0.12 mol
same,buffer-corrected enthalpy of the binding reaction ΔHcorrected,"Endothiapepsin (EP) [2]; y-axis intercept of ΔHobs vs ΔHion in phosphate, ADA, HEPES, TRIS, pH 7.0, 25 °C",-12.7 kcal/mol
same,pH dependence of affinity,Endothiapepsin (EP) [3],becomes higher at more acidic pH
same,proton exchange ΔnH^+ previously published,Endothiapepsin (EP) [4],1.1±0.1 protons
